A word on the viability: it is a read-out of living cells in per cent, often relative to untreated cells.

The data set is described as follows: in vitro. The note with it: human, hela cells, % viability.
Consider `CC(=O)NC(C)(COc1nonc1C)COc1nonc1C` [CBK265955], for which the viability at 28.5 h, 10 µM amounted to 90.3%.

As for `O=C(Nc1cccc(NS(=O)(=O)c2ccc(Cl)cc2)c1)c1ccco1` [CBK265956], the viability at 28.5 h, 10 µM is 91.2%.

`O=C(CSCc1ccccc1Br)Nc1ccccc1-c1ccccc1` [CBK265959]: the viability at 28.5 h, 10 µM was determined as 88.4%.

For `Cc1ccc(S(=O)(=O)N2CCN(C(=O)CSc3nnc4sc5ccccc5n34)CC2)cc1` [CBK265961], the viability at 28.5 h, 10 µM amounted to 90.5%.

On to `CCc1ccccc1NC(=O)Cn1ncnc1Sc1nc2c(c(=O)n(C)c(=O)n2C)n1C` [CBK265963], for which the viability at 28.5 h, 10 µM worked out at 87.6%.

On to `Cc1ccc(OCC(=O)Nc2cc(Cl)ccc2O)cc1C` [CBK265968], for which the viability at 28.5 h, 10 µM is 108%.

Take `Cn1c(SCCOc2ccccc2Cl)nnc1-c1ccncc1` [CBK265969]: the viability at 28.5 h, 10 µM worked out at 111%.

For the compound `O=C(O)CC(C(=O)OC1CCCCC1)N1CCOCC1` (stereo not shown) [CBK265970], the viability at 28.5 h, 10 µM amounted to 95.1%.

Turning to `NC(=O)C1CCN(C(=O)CN2CCN(Cc3ccccc3)CC2)CC1` [CBK265971C], the viability at 28.5 h, 10 µM worked out at 82.8%.

In the case of `COc1ccc(CN(C(=O)CCN2C(=O)c3ccccc3S2(=O)=O)c2ccccc2O)cc1` [CBK265973], the viability at 28.5 h, 10 µM was found to be 99.4%.

In the case of `COC(=O)c1ccccc1NC(=O)CNS(=O)(=O)c1c(C)cc(C)cc1C` [CBK265974], the viability at 28.5 h, 10 µM was 104%.

Consider `COC(=O)c1c(-c2ccc(F)cc2)csc1NC(=O)CSc1ncnc2sc3c(c12)CCC3` [CBK265976], for which the viability at 28.5 h, 10 µM worked out at 103%.

Take `O=C(Cc1ccc([N+](=O)[O-])cc1)Nc1ccc(O)cc1C(=O)O` [CBK265977]: the viability at 28.5 h, 10 µM was found to be 97.6%.

For `COC(=O)c1cc(-c2ccccc2)sc1NC(=O)CSc1ncnc2sc3c(c12)CCC3` [CBK265978], the viability at 28.5 h, 10 µM turned out to be 97.4%.

For the compound `COc1ccc(Br)cc1C(=O)NC(=S)Nc1cc(Cl)c(O)c(Cl)c1` [CBK265979], the viability at 28.5 h, 10 µM came to 89.6%.

Turning to `Nc1nonc1C(=O)NCCNS(=O)(=O)c1ccc(F)cc1` [CBK265980], the viability at 28.5 h, 10 µM is 88.1%.

For the compound `O=C(O)CCc1ccc(-c2cccs2)n1CCc1ccccc1` [CBK265983], the viability at 28.5 h, 10 µM was 113%.

For `COCCn1c(Cc2ccccc2)nnc1SCc1ccc2ccccc2c1` [CBK265985], the viability at 28.5 h, 10 µM was 96.6%.

On to `CCc1cccc(CC)c1NC(=O)CN(c1cccc(Br)c1)S(C)(=O)=O` [CBK265986], for which the viability at 28.5 h, 10 µM amounted to 84.9%.

`C=CCN1CC2(c3ccccc3)CN(CC=C)CC(c3ccccc3)(C1)C2=O` [CBK265987]: the viability at 28.5 h, 10 µM was 86.3%.

`Cc1ccc(S(=O)(=O)N(CC(=O)Nc2ccccc2-c2ccccc2)c2cccc(C)c2)cc1` [CBK265988]: the viability at 28.5 h, 10 µM is 98%.

`CN1CCN(CCC(=O)Nc2ccc(Cl)c(C(F)(F)F)c2)CC1` [CBK265995]: the viability at 28.5 h, 10 µM stood at 89.9%.

For `Cc1ccc(N(CC(=O)Nc2ccc(C)cc2C)S(=O)(=O)N2CCCC2)cc1` [CBK265998], the viability at 28.5 h, 10 µM amounted to 110%.

On to `CCOC(=O)c1c(NC(=O)CSc2nnc[nH]2)sc2c1CCCC2` [CBK265999], for which the viability at 28.5 h, 10 µM was 93.1%.

For the compound `COC(=O)c1ccccc1NC(=O)CNS(=O)(=O)c1ccc(C)cc1` [CBK266000], the viability at 28.5 h, 10 µM came to 94.7%.

Consider `COc1cccc(NC(=O)CCN2C(=O)c3ccccc3S2(=O)=O)c1` [CBK266003], for which the viability at 28.5 h, 10 µM is 92.3%.

In the case of `CNc1cc(N2CCN(S(=O)(=O)c3ccc(C)cc3)CC2)ccc1[N+](=O)[O-]` [CBK266005], the viability at 28.5 h, 10 µM stood at 104%.

Take `O=C(O)COc1ccc(NC(=O)c2ccc3c(c2)C(=O)N(C2CCCCC2)C3=O)cc1` [CBK266009]: the viability at 28.5 h, 10 µM stood at 92.1%.

Turning to `CCOC(=O)c1ccc(-n2c(CCC(=O)O)ccc2-c2ccc(F)cc2)cc1O` [CBK266010], the viability at 28.5 h, 10 µM stood at 94.1%.

On to `CCOC(=O)c1cnc2c(C(F)(F)F)cccc2c1NCCCN1CCOCC1` [CBK266012], for which the viability at 28.5 h, 10 µM worked out at 92.4%.

Regarding `CCN(CC)Cc1cc(C(C)(C)C)oc1C(=O)O` [CBK266013C], the viability at 28.5 h, 10 µM amounted to 110%.

The values are drawn from paper PMC12040169 (PLOS Biology, 2025).
